Source: ChEMBL document CHEMBL1127897, “Cucurbitacin F derivatives, anti-HIV principles from cowania mexicana” (Bioorg Med Chem Lett, 1994)
Converted amounts (≈) assume the structure as drawn.

Legend:
H9 [1] = test: Tested for anti-HIV activity against acutely infected H9 cells, activity expressed as EC50.; assay type: functional, cell-based; conditions: Homo sapiens
H9 [2] = test: Concentration required for […] against acutely infected H9 cells; assay type: functional, cell-based; conditions: Homo sapiens
[3] = Evaluated for the therapeutic index value of the compound.; assay type: functional

EC50 (H9 [1]) | IC50 (H9 [2]) | Compound | Therapeutic index [3]
0.3 µg/mL (≈ 0.563 µM) | 5.1 µg/mL (≈ 9.57 µM) | CC(C)(O)/C=C/C(=O)[C@](C)(O)C1[C@H](O)C(=O)[C@@]2(C)[C@@H]3CC=C4[C@@H](C[C@H](O)[C@@H](O)C4(C)C)[C@]3(C)C(=O)C[C@]12C (some centres not stated) | 17
2.5 µg/mL (≈ 4.68 µM) | 38 µg/mL (≈ 71.1 µM) | CC(C)(O)CCC(=O)[C@](C)(O)C1[C@H](O)C(=O)[C@@]2(C)[C@@H]3CC=C4[C@@H](C[C@H](O)[C@@H](O)C4(C)C)[C@]3(C)C(=O)C[C@]12C (some centres not stated) | 15.2
0.8 µg/mL (≈ 1.54 µM) | 9.3 µg/mL (≈ 17.9 µM) | CC(C)(O)CCC(=O)[C@](C)(O)C1[C@H](O)C[C@@]2(C)[C@@H]3CC=C4[C@@H](C[C@H](O)[C@@H](O)C4(C)C)[C@]3(C)C(=O)C[C@]12C (some centres not stated) | 11.6

Compound | EC50 (H9 [1]) | IC50 (H9 [2]) | Therapeutic index [3]
CC(C)(O)/C=C/C(=O)[C@](C)(O)[C@H]1[C@H](O)C[C@@]2(C)[C@@H]3CC=C4[C@@H](C[C@H](O)[C@@H](O)C4(C)C)[C@]3(C)C(=O)C[C@]12C [CUCURBITACIN F] | 0.06 µg/mL (≈ 0.116 µM) | 0.16 µg/mL (≈ 0.308 µM) | 2.7
